# From patent publication US8697739B2, “Bicyclic acetyl-CoA carboxylase inhibitors and uses thereof” (Novartis AG, priority 2010, dated 2014)
# Target: T1, human acetyl-CoA carboxylase 2 (ACC2) (Homo sapiens, UniProt O00763)
# T1 construct: The cDNA encoding amino acids 144 to 2458 of human acetyl-CoA carboxylase 2; made in house; host or cells: Sf9 insect cells (baculovirus, pFastBac1)
# Assay: Acetyl-CoA carboxylase enzyme assay (malonyl-CoA formation by LC/MS/MS)
# Assay type: biochemical
# Details: recombinant human ACC2 (aa 144-2458); read-out: IC50 ACC2
# Outline: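 Malonyl-CoA formation was read by LC/MS/MS MRM against a [13C3]-malonyl-CoA internal standard, after acetic acid quench. The enzyme was baculovirus/Sf9-expressed human ACC2 residues 144–2458, given 15 minutes room-temperature compound preincubation in HEPES pH 7.5 buffer with MgCl2, citrate and DTT. Substrate solution held 50 μM acetyl-CoA, 120 μM ATP and 2 mM KHCO3.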
# T1 sequence (O00763 144-2458): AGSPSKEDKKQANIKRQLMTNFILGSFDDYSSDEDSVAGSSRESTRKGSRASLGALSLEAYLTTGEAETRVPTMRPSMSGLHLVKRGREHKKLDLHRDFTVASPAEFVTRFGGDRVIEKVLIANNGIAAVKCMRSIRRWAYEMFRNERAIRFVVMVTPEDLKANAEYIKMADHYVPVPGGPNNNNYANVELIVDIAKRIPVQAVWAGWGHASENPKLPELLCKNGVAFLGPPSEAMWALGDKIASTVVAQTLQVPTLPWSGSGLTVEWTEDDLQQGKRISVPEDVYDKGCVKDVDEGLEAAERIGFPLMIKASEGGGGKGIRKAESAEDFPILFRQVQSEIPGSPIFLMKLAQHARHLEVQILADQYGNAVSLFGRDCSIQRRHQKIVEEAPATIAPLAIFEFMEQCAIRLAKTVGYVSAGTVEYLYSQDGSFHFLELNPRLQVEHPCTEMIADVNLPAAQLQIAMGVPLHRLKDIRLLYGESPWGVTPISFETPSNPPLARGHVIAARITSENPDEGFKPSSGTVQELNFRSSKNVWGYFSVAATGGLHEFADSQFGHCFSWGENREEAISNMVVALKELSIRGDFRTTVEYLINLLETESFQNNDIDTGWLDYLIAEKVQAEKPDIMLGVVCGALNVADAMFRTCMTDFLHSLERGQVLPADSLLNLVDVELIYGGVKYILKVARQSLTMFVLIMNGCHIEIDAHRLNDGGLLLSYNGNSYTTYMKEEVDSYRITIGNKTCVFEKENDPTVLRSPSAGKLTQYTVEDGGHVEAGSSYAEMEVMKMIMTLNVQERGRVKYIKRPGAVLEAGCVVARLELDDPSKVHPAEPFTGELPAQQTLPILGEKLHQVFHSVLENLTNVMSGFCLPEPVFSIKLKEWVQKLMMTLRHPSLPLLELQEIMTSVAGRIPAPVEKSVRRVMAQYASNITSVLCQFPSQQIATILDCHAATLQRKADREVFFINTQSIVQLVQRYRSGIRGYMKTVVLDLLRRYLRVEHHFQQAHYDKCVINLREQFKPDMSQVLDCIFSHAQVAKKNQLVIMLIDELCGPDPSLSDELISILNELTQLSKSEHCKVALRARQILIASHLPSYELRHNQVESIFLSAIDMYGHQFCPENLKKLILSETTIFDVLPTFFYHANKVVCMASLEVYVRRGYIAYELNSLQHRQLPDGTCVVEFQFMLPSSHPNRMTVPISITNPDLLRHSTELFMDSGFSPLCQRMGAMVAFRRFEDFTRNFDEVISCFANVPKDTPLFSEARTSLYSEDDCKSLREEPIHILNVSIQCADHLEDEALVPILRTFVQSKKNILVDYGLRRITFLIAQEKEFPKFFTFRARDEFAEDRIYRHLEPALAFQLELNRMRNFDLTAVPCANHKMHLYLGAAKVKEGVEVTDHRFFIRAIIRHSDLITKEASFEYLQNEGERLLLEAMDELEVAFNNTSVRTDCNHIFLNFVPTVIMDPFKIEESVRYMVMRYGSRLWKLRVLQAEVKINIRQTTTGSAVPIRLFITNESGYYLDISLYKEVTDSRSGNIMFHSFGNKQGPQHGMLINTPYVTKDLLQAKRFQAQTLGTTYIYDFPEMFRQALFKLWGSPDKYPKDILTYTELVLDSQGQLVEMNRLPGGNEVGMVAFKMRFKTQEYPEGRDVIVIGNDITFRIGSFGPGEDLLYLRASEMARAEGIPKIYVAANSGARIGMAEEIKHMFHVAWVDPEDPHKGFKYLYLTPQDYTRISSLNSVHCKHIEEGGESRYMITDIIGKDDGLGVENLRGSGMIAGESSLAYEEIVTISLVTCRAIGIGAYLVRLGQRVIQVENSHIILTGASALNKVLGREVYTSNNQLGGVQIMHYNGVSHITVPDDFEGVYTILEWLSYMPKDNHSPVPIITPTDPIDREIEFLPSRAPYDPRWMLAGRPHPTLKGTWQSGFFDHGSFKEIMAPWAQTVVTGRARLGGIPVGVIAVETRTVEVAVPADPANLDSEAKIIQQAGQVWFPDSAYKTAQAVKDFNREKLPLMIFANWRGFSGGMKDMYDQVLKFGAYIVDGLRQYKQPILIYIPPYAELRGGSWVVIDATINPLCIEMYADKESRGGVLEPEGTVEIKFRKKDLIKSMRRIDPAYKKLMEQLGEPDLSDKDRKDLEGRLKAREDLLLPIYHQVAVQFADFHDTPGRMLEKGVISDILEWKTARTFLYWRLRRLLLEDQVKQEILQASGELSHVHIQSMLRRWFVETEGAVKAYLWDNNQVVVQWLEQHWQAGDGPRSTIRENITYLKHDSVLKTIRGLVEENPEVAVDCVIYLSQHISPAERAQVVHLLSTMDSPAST
row,IC50 [nM],SMILES
1,256,"CC(NC(=O)[C@H]1CC[C@H](NS(=O)(=O)c2ccc3[nH]c(-c4cccnc4)cc3c2)CC1)c1ccncc1 (stereo partly drawn) [Example 283, (1r,4r)-4-(2-(pyridin-3-yl)-1H-indole-5-sulfonamido)-N-(1-(pyridin-4-yl)ethyl)cyclohexanecarboxamide]"
2,14,"C[C@@H](NC(=O)[C@H]1CC[C@H](NS(=O)(=O)c2ccc3[nH]c(-c4cccnc4)cc3c2)CC1)c1ccccc1 [Example 284, (1r,4R)-N-((R)-1-phenylethyl)-4-(2-(pyridin-3-yl)-1H-indole-5-sulfonamido)cyclohexanecarboxamide]"
3,12,"C[C@@H](NC(=O)[C@H]1CC[C@H](NS(=O)(=O)c2ccc3[nH]c(-c4cccnc4)cc3c2)CC1)c1ccc(F)cc1 [Example 285, (1r,4R)-N-((R)-1-(4-fluorophenyl)ethyl)-4-(2-(pyridin-3-yl)-1H-indole-5-sulfonamido)cyclohexanecarboxamide]"
4,342,"CCC(C)NC(=O)[C@H]1CC[C@H](NS(=O)(=O)c2ccc3[nH]c(-c4cccnc4)cc3c2)CC1 (stereo partly drawn) [Example 286, (1r,4r)-N-sec-butyl-4-(2-(pyridin-3-yl)-1H-indole-5-sulfonamido)cyclohexanecarboxamide]"
5,196,"CCC(C)NC(=O)[C@H]1CC[C@H](NS(=O)(=O)c2ccc3[nH]c(-c4cccnc4)cc3c2)CC1 (stereo partly drawn) [Example 287, (1r,4R)-N-sec-butyl-4-(2-(pyridin-3-yl)-1H-indole-5-sulfonamido)cyclohexanecarboxamide]"
6,400,"CC(C)N(C)C(=O)[C@H]1CC[C@H](NS(=O)(=O)c2ccc3[nH]c(-c4cccnc4)cc3c2)CC1 [Example 288, (1r,4r)-N-isopropyl-N-methyl-4-(2-(pyridin-3-yl)-1H-indole-5-sulfonamido)cyclohexanecarboxamide]"
7,234,"CC(C)[C@@H](C)NC(=O)[C@H]1CC[C@H](NS(=O)(=O)c2ccc3[nH]c(-c4cccnc4)cc3c2)CC1 [Example 289, (1r,4R)-N-((R)-3-methylbutan-2-yl)-4-(2-(pyridin-3-yl)-1H-indole-5-sulfonamido)cyclohexanecarboxamide]"
8,28,"C[C@@H](NC(=O)[C@H]1CC[C@H](NS(=O)(=O)c2ccc3cc(C4CC4)[nH]c3c2)CC1)c1ccc(F)cc1 [Example 290, (1r,4R)-4-(2-cyclopropyl-1H-indole-6-sulfonamido)-N-((R)-1-(4-fluorophenyl)ethyl)cyclohexanecarboxamide]"
9,17,"C[C@@H](NC(=O)[C@H]1CC[C@H](NS(=O)(=O)c2ccc3cc(-c4ccccc4Cl)[nH]c3c2)CC1)c1ccc(F)cc1 [Example 291, (1r,4R)-4-(2-(2-chlorophenyl)-1H-indole-6-sulfonamido)-N-((R)-1-(4-fluorophenyl)ethyl)cyclohexanecarboxamide]"
10,12,"Cc1ccccc1-c1cc2ccc(S(=O)(=O)N[C@H]3CC[C@H](C(=O)N[C@H](C)c4ccc(F)cc4)CC3)cc2[nH]1 [Example 292, (1r,4R)-N-((R)-1-(4-fluorophenyl)ethyl)-4-(2-o-tolyl-1H-indole-6-sulfonamido)cyclohexanecarboxamide]"
11,38,COc1ccccc1-c1cc2ccc(S(=O)(=O)N[C@H]3CC[C@H](C(=O)N[C@H](C)c4ccc(F)cc4)CC3)cc2[nH]1 [Example 293]
12,279,"C[C@@H](NC(=O)[C@H]1CC[C@H](NS(=O)(=O)c2ccc3cc(C4CC4)[nH]c3c2)CC1)c1ccccn1 [Example 294, (1r,4R)-4-(2-cyclopropyl-1H-indole-6-sulfonamido)-N-((R)-1-(pyridin-2-yl)ethyl)cyclohexanecarboxamide]"
13,475,"C[C@@H](NC(=O)[C@H]1CC[C@H](NS(=O)(=O)c2ccc3cc(-c4c(Cl)cccc4Cl)[nH]c3c2)CC1)c1ccc(F)cc1 [Example 295, (1r,4R)-4-(2-(2,6-dichlorophenyl)-1H-indole-6-sulfonamido)-N-((R)-1-(4-fluorophenyl)ethyl)cyclohexanecarboxamide]"
14,< 10,"C[C@@H](NC(=O)[C@H]1CC[C@H](NS(=O)(=O)c2ccc3cc(-c4ccc(CO)cc4)[nH]c3c2)CC1)c1ccc(F)cc1 [Example 296, (1r,4R)-N-((R)-1-(4-fluorophenyl)ethyl)-4-(2-(4-(hydroxymethyl)phenyl)-1H-indole-6-sulfonamido)cyclohexanecarboxamide]"
15,17,"COc1ccc(-c2cc3ccc(S(=O)(=O)N[C@H]4CC[C@H](C(=O)N[C@H](C)c5ccc(F)cc5)CC4)cc3[nH]2)c(C)c1 [Example 297, (1r,4R)-N-((R)-1-(4-fluorophenyl)ethyl)-4-(2-(4-methoxy-2-methylphenyl)-1H-indole-6-sulfonamido)cyclohexanecarboxamide]"
16,24,"Cc1ccc(C)c(-c2cc3ccc(S(=O)(=O)N[C@H]4CC[C@H](C(=O)N[C@H](C)c5ccc(F)cc5)CC4)cc3[nH]2)c1 [Example 298, (1r,4R)-4-(2-(2,5-dimethylphenyl)-1H-indole-6-sulfonamido)-N-((R)-1-(4-fluorophenyl)ethyl)cyclohexanecarboxamide]"
17,11,"C[C@@H](NC(=O)[C@H]1CC[C@H](NS(=O)(=O)c2ccc3cc(-c4ccccc4CO)[nH]c3c2)CC1)c1ccc(F)cc1 [Example 299, (1r,4R)-N-((R)-1-(4-fluorophenyl)ethyl)-4-(2-(2-(hydroxymethyl)phenyl)-1H-indole-6-sulfonamido)cyclohexanecarboxamide]"
18,10,COC(=O)c1ccc(-c2cc3ccc(S(=O)(=O)N[C@H]4CC[C@H](C(=O)N[C@H](C)c5ccc(F)cc5)CC4)cc3[nH]2)c(C)c1 [Example 300]
19,< 10,"Cc1cc(C(=O)O)ccc1-c1cc2ccc(S(=O)(=O)N[C@H]3CC[C@H](C(=O)N[C@H](C)c4ccc(F)cc4)CC3)cc2[nH]1 [Example 301, 4-(6-(N-((1R,4r)-4-((R)-1-(4-fluorophenyl)ethylcarbamoyl)cyclohexyl)sulfamoyl)-1H-indol-2-yl)-3-methylbenzoic acid]"
20,< 10,"Cc1cc(CO)ccc1-c1cc2ccc(S(=O)(=O)N[C@H]3CC[C@H](C(=O)N[C@H](C)c4ccc(F)cc4)CC3)cc2[nH]1 [Example 302, (1r,4R)-N-((R)-1-(4-fluorophenyl)ethyl)-4-(2-(4-(hydroxymethyl)-2-methylphenyl)-1H-indole-6-sulfonamido)cyclohexanecarboxamide]"
21,575,"CC(C)Cc1cc2ccc(S(=O)(=O)N[C@H]3CC[C@H](C(=O)N[C@H](C)c4ccc(F)cc4)CC3)cc2[nH]1 [Example 303, (1r,4R)-N-((R)-1-(4-fluorophenyl)ethyl)-4-(2-isobutyl-1H-indole-6-sulfonamido)cyclohexanecarboxamide]"
22,180,"C[C@@H](NC(=O)[C@H]1CC[C@H](NS(=O)(=O)c2ccc3cc(C4CCCC4)[nH]c3c2)CC1)c1ccc(F)cc1 [Example 304, (1r,4R)-4-(2-cyclopentyl-1H-indole-6-sulfonamido)-N-((R)-1-(4-fluorophenyl)ethyl)cyclohexanecarboxamide]"
23,60,"C[C@@H](NC(=O)[C@H]1CC[C@H](NS(=O)(=O)c2ccc3cc(CCO)[nH]c3c2)CC1)c1ccc(F)cc1 [Example 305, (1r,4R)-N-((R)-1-(4-fluorophenyl)ethyl)-4-(2-(2-hydroxyethyl)-1H-indole-6-sulfonamido)cyclohexanecarboxamide]"
24,10,"C[C@@H](NC(=O)[C@H]1CC[C@H](NS(=O)(=O)c2ccc3cc(-c4ccccc4C#N)[nH]c3c2)CC1)c1ccc(F)cc1 [Example 307, (1r,4R)-4-(2-(2-cyanophenyl)-1H-indole-6-sulfonamido)-N-((R)-1-(4-fluorophenyl)ethyl)cyclohexanecarboxamide]"
25,60,"Cc1cc(CO)ccc1-c1cc2ccc(S(=O)(=O)N[C@H]3CC[C@H](C(=O)N4CCOCC4)CC3)cc2[nH]1 [Example 308, 2-(4-(hydroxymethyl)-2-methylphenyl)-N-((1r,4r)-4-(morpholine-4-carbonyl)cyclohexyl)-1H-indole-6-sulfonamide]"
26,20,"Cc1cc(CO)ccc1-c1cc2ccc(S(=O)(=O)N[C@H]3CC[C@H](C(=O)N4CCN(C(=O)OC(C)(C)C)C[C@@H]4c4ccccc4)CC3)cc2[nH]1 [Example 309, (S)-tert-butyl 4-((1r,4S)-4-(2-(4-(hydroxymethyl)-2-methylphenyl)-1H-indole-6-sulfonamido)cyclohexanecarbonyl)-3-phenylpiperazine-1-carboxylate]"
27,62,"Cc1cc(CO)ccc1-c1cc2ccc(S(=O)(=O)N[C@H]3CC[C@H](C(=O)N4CCN(C(=O)OC(C)(C)C)CC4)CC3)cc2[nH]1 [Example 310, tert-butyl 4-((1r,4r)-4-(2-(4-(hydroxymethyl)-2-methylphenyl)-1H-indole-6-sulfonamido)cyclohexanecarbonyl)piperazine-1-carboxylate]"
28,< 10,"Cc1cc(CO)ccc1-c1cc2ccc(S(=O)(=O)N[C@H]3CC[C@H](C(=O)N4CCOCC4c4ccccc4)CC3)cc2[nH]1 (stereo partly drawn) [Example 311, 2-(4-(hydroxymethyl)-2-methylphenyl)-N-((1r,4r)-4-(3-phenylmorpholine-4-carbonyl)cyclohexyl)-1H-indole-6-sulfonamide]"
29,599,"Cc1cc(CO)ccc1-c1cc2ccc(S(=O)(=O)N[C@H]3CC[C@H](C(=O)N4CCNCC4)CC3)cc2[nH]1 [Example 312, 2-(4-(hydroxymethyl)-2-methylphenyl)-N-((1r,4r)-4-(piperazine-1-carbonyl)cyclohexyl)-1H-indole-6-sulfonamide]"

row,SMILES,IC50 [nM]
1,"C[C@@H](NC(=O)[C@H]1CC[C@H](NS(=O)(=O)c2ccc3cc(CCOS(C)(=O)=O)[nH]c3c2)CC1)c1ccc(F)cc1 [Example 306, 2-(6-(N-((1R,4r)-4-((R)-1-(4-fluorophenyl)ethylcarbamoyl)cyclohexyl)sulfamoyl)-1H-indol-2-yl)ethyl methanesulfonate]",50
